Reference: ChEMBL document CHEMBL1123935 (J Med Chem, 1987)

Target: D(2) dopamine receptor (Rattus norvegicus, UniProt P61169)
Test: Compound was tested for inhibitory activity against the binding of [3H]spiperone to Dopamine receptor D2 in rat striatal membranes
Type: cell membranes, Membrane

Sequence of D(2) dopamine receptor (P61169 whole entry): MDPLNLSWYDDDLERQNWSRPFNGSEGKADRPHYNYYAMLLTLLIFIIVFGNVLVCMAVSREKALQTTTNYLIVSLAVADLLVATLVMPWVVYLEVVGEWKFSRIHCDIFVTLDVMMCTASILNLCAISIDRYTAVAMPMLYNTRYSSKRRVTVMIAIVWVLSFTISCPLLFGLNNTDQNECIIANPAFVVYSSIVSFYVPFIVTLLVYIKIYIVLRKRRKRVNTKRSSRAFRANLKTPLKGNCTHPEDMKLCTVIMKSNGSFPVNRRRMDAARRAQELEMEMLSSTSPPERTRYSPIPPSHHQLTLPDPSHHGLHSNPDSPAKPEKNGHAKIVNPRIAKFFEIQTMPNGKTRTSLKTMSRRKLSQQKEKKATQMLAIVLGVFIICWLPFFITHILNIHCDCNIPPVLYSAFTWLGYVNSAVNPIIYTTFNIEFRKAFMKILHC

| Ki | Structure (SMILES) |
| --- | --- |
| 2150 nM | C[N+](C)(C)CCCN1c2ccccc2Sc2ccc(Cl)cc21 |
| 280 nM | C[S+](C)CCCN1c2ccccc2Sc2ccc(Cl)cc21 |
